Measurements taken from PubChem BioAssay (NCI).
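Five compound concentrations were applied to cells in 96-well plates for 48 hours; endpoints were derived by simple linear interpolation of the resulting dose-response curve. TGI marks complete inhibition of growth.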

Tests used:
Assay in all cases: inhibition of tumour cell growth, NCI panel, 48 h
MDA-MB-435 = system: MDA-MB-435
UO-31 renal = system: UO-31 renal
OVCAR-8 ovarian = system: OVCAR-8 ovarian
IGROV1 ovarian = system: IGROV1 ovarian
SN12C renal = system: SN12C renal
MALME-3M melanoma = system: MALME-3M melanoma
U251 CNS = system: U251 CNS
SF-268 CNS = system: SF-268 CNS
NCI-H460 lung = system: NCI-H460 lung
OVCAR-5 ovarian = system: OVCAR-5 ovarian
NCI/ADR-RES ovarian = system: NCI/ADR-RES ovarian
HT29 colon = system: HT29 colon
MDA-MB-231 breast = system: MDA-MB-231 breast
SK-MEL-28 melanoma = system: SK-MEL-28 melanoma
SF-295 CNS = system: SF-295 CNS
HS 578T breast = system: HS 578T breast
K-562 leukemia = system: K-562 leukemia
SNB-75 CNS = system: SNB-75 CNS
MCF7 breast = system: MCF7 breast
SNB-19 CNS = system: SNB-19 CNS
SR leukemia = system: SR leukemia
UACC-257 melanoma = system: UACC-257 melanoma
TK-10 renal = system: TK-10 renal
HL-60(TB) leukemia = system: HL-60(TB) leukemia
LOX IMVI melanoma = system: LOX IMVI melanoma
HCT-15 colon = system: HCT-15 colon
KM12 colon = system: KM12 colon
DU-145 prostate = system: DU-145 prostate
UACC-62 melanoma = system: UACC-62 melanoma
MDA-N = system: MDA-N
CCRF-CEM leukemia = system: CCRF-CEM leukemia
NCI-H522 lung = system: NCI-H522 lung
NCI-H226 lung = system: NCI-H226 lung
ACHN renal = system: ACHN renal
RXF 393 renal = system: RXF 393 renal
786-0 renal = system: 786-0 renal
EKVX NSCLC = system: EKVX NSCLC
RPMI-8226 leukemia = system: RPMI-8226 leukemia
MOLT-4 leukemia = system: MOLT-4 leukemia
OVCAR-3 ovarian = system: OVCAR-3 ovarian
HCT-116 colon = system: HCT-116 colon
BT-549 breast = system: BT-549 breast
CAKI-1 renal = system: CAKI-1 renal
PC-3 prostate = system: PC-3 prostate
A549 NSCLC = system: A549 NSCLC
HCC-2998 colon = system: HCC-2998 colon
COLO 205 colon = system: COLO 205 colon
SW-620 colon = system: SW-620 colon
SF-539 CNS = system: SF-539 CNS
NCI-H23 lung = system: NCI-H23 lung
T-47D breast = system: T-47D breast
HOP-62 NSCLC = system: HOP-62 NSCLC
A498 renal = system: A498 renal
SK-MEL-2 melanoma = system: SK-MEL-2 melanoma
SK-OV-3 ovarian = system: SK-OV-3 ovarian
M14 melanoma = system: M14 melanoma
HOP-92 NSCLC = system: HOP-92 NSCLC
SK-MEL-5 melanoma = system: SK-MEL-5 melanoma

## CC(=O)N1CCN(CCCCN2c3ccccc3Sc3cc(N=[N+]=[N-])ccc32)CC1
MDA-MB-435
  TGI: 29 µM
UO-31 renal
  TGI: 23.5 µM
OVCAR-8 ovarian
  TGI: 32 µM
IGROV1 ovarian
  TGI: 29.1 µM
SN12C renal
  TGI: 31.4 µM
MALME-3M melanoma
  TGI: 33 µM
U251 CNS
  TGI: 27.6 µM
SF-268 CNS
  TGI: 39.1 µM
NCI-H460 lung
  TGI: 28.1 µM
OVCAR-5 ovarian
  TGI: 26.6 µM
NCI/ADR-RES ovarian
  TGI: 27.4 µM
HT29 colon
  TGI: 27.8 µM
MDA-MB-231 breast
  TGI: 26.7 µM
SK-MEL-28 melanoma
  TGI: 33.4 µM
SF-295 CNS
  TGI: 31.5 µM
HS 578T breast
  TGI: 32.7 µM
K-562 leukemia
  TGI: 31.3 µM
SNB-75 CNS
  TGI: 26.2 µM
MCF7 breast
  TGI: 28.9 µM
SNB-19 CNS
  TGI: 29.6 µM
SR leukemia
  TGI: 26.5 µM
UACC-257 melanoma
  TGI: 40.2 µM
TK-10 renal
  TGI: 31.3 µM
HL-60(TB) leukemia
  TGI: 27.3 µM
LOX IMVI melanoma
  TGI: 30.9 µM
HCT-15 colon
  TGI: 28.1 µM
KM12 colon
  TGI: 28.2 µM
DU-145 prostate
  TGI: 32.1 µM
UACC-62 melanoma
  TGI: 9.21 µM
MDA-N
  TGI: 30.5 µM
CCRF-CEM leukemia
  TGI: 33.2 µM
NCI-H522 lung
  TGI: 26.3 µM
NCI-H226 lung
  TGI: 35.5 µM
ACHN renal
  TGI: 28.2 µM
RXF 393 renal
  TGI: 24.4 µM
786-0 renal
  TGI: 29.5 µM
EKVX NSCLC
  TGI: 32.7 µM
RPMI-8226 leukemia
  TGI: 29.1 µM
MOLT-4 leukemia
  TGI: 25.3 µM
OVCAR-3 ovarian
  TGI: 25.3 µM
HCT-116 colon
  TGI: 26.7 µM
BT-549 breast
  TGI: 31.6 µM
CAKI-1 renal
  TGI: 24.9 µM
PC-3 prostate
  TGI: 20 µM
A549 NSCLC
  TGI: 30 µM
HCC-2998 colon
  TGI: 28.5 µM
COLO 205 colon
  TGI: 29.7 µM
SW-620 colon
  TGI: 29.3 µM
SF-539 CNS
  TGI: 31.8 µM
NCI-H23 lung
  TGI: 30.1 µM
T-47D breast
  TGI: 15.2 µM
HOP-62 NSCLC
  TGI: 27.4 µM

## COc1cc(C(=O)N(C(=O)N2CCCCC2)c2ccccc2)cc(OC)c1OC
MDA-MB-435
  TGI: > 100 µM
UO-31 renal
  TGI: > 100 µM
OVCAR-8 ovarian
  TGI: > 100 µM
IGROV1 ovarian
  TGI: > 100 µM
SN12C renal
  TGI: > 100 µM
U251 CNS
  TGI: > 100 µM
A498 renal
  TGI: > 100 µM
NCI-H460 lung
  TGI: > 100 µM
SK-MEL-2 melanoma
  TGI: > 100 µM
OVCAR-5 ovarian
  TGI: > 100 µM
NCI/ADR-RES ovarian
  TGI: > 100 µM
MDA-MB-231 breast
  TGI: > 100 µM
SK-MEL-28 melanoma
  TGI: > 100 µM
SF-295 CNS
  TGI: > 100 µM
K-562 leukemia
  TGI: > 100 µM
SNB-75 CNS
  TGI: > 100 µM
MCF7 breast
  TGI: > 100 µM
SNB-19 CNS
  TGI: > 100 µM
SR leukemia
  TGI: > 100 µM
SK-OV-3 ovarian
  TGI: > 100 µM
UACC-257 melanoma
  TGI: > 100 µM
LOX IMVI melanoma
  TGI: > 100 µM
HCT-15 colon
  TGI: > 100 µM
KM12 colon
  TGI: > 100 µM
DU-145 prostate
  TGI: > 100 µM
M14 melanoma
  TGI: > 100 µM
UACC-62 melanoma
  TGI: > 100 µM
MDA-N
  TGI: > 100 µM
CCRF-CEM leukemia
  TGI: > 100 µM
NCI-H226 lung
  TGI: > 100 µM
ACHN renal
  TGI: > 100 µM
HOP-92 NSCLC
  TGI: > 100 µM
786-0 renal
  TGI: > 100 µM
EKVX NSCLC
  TGI: > 100 µM
RPMI-8226 leukemia
  TGI: > 100 µM
MOLT-4 leukemia
  TGI: > 100 µM
OVCAR-3 ovarian
  TGI: > 100 µM
HCT-116 colon
  TGI: > 100 µM
BT-549 breast
  TGI: > 100 µM
CAKI-1 renal
  TGI: > 100 µM
PC-3 prostate
  TGI: > 100 µM
A549 NSCLC
  TGI: > 100 µM
HCC-2998 colon
  TGI: > 100 µM
COLO 205 colon
  TGI: > 100 µM
SW-620 colon
  TGI: > 100 µM
SF-539 CNS
  TGI: > 100 µM
NCI-H23 lung
  TGI: > 100 µM
T-47D breast
  TGI: > 100 µM
SK-MEL-5 melanoma
  TGI: > 100 µM
HOP-62 NSCLC
  TGI: > 100 µM
